The nature of data set [1]: Population PK analysis of oral semaglutide in PIONEER 1, 2, 3, 5, 8 and 9. Format: in vivo, human.
For data set [2] the following is noted: stated in discussion, no reference given; cited from earlier work.
For data set [3] the following is noted: SUSTAIN-6, T2D population with high CV risk; cited from earlier work.

For the compound `CC[C@H](C)[C@H](NC(=O)[C@H](Cc1ccccc1)NC(=O)[C@H](CCC(=O)O)NC(=O)[C@H](CCCCNC(=O)COCCOCCNC(=O)COCCOCCNC(=O)CC[C@H](NC(=O)CCCCCCCCCCCCCCCCC(=O)O)C(=O)O)NC(=O)[C@H](C)NC(=O)[C@H](C)NC(=O)[C@H](CCC(N)=O)NC(=O)CNC(=O)[C@H](CCC(=O)O)NC(=O)[C@H](CC(C)C)NC(=O)[C@H](Cc1ccc(O)cc1)NC(=O)[C@H](CO)NC(=O)[C@H](CO)NC(=O)[C@@H](NC(=O)[C@H](CC(=O)O)NC(=O)[C@H](CO)NC(=O)[C@@H](NC(=O)[C@H](Cc1ccccc1)NC(=O)[C@@H](NC(=O)CNC(=O)[C@H](CCC(=O)O)NC(=O)C(C)(C)NC(=O)[C@@H](N)Cc1cnc[nH]1)[C@@H](C)O)[C@@H](C)O)C(C)C)C(=O)N[C@@H](C)C(=O)N[C@@H](Cc1c[nH]c2ccccc12)C(=O)N[C@@H](CC(C)C)C(=O)N[C@H](C(=O)N[C@@H](CCCNC(=N)N)C(=O)NCC(=O)N[C@@H](CCCNC(=N)N)C(=O)NCC(=O)O)C(C)C` [oral semaglutide, semaglutide], in data set [1] (34 patients with gastric ulcer, non-significant), the “lower exposure compared to subjects not reporting GI disease” value was 11%. In data set [1] (174 subjects with chronic gastritis), the “exposure compared to subjects not reporting GI disease” value is on record as “No effect differences”. Also, the “fraction of subjects with exposure levels considered below the therapeutic range” value in data set [1] (oral semaglutide 14 mg) was determined as 3%.

Turning to semaglutide, the half-life in data set [2] is listed as about 1 week.

Consider semaglutide [s.c. semaglutide], for which the “reduction in the hazard ratio of major adverse cardiovascular events (MACE)” value in data set [3] was 26%.

The values are drawn from publication PMC8484505 (Cell Reports Medicine, 2021).
